{
  "source": "paper PMC4938538",
  "about": "“Inhibition of Pig Phosphoenolpyruvate Carboxykinase Isoenzymes by 3-Mercaptopicolinic Acid and Novel Inhibitors” (PLoS ONE, 2016)",
  "key": {"wild type PEPCK-C": {"target": "T1, wild type PEPCK-C (Sus scrofa, UniProt A0A4X1UM84)", "T1 construct": "made in house; host or cells: Escherichia coli BL21 (DE3)", "T1 sequence (A0A4X1UM84 1-622)": "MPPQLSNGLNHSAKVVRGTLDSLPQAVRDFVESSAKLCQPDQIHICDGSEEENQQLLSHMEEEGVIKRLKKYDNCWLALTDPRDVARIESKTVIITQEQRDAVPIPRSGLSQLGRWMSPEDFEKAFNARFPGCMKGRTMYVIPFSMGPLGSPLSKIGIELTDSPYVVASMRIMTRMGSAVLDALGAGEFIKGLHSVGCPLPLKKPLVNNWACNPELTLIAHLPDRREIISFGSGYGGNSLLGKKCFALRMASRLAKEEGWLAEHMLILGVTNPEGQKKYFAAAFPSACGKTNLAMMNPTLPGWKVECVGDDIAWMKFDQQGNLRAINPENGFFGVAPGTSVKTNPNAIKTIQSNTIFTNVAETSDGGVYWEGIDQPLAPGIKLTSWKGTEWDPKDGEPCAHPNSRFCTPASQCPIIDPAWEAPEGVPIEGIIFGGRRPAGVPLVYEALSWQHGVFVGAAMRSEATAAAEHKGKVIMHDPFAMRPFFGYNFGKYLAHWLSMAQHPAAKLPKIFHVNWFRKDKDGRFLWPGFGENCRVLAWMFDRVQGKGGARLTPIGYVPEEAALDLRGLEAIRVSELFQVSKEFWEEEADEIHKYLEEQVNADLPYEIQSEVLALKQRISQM", "assay": "IC50 determination, PEPCK-C activity in the direction of OAA synthesis (coupled spectrophotometric assay with malate dehydrogenase)", "format": "biochemical, pig", "conditions": "saturating substrate concentration", "experimental": "PEPCK-C activity was measured in an UNICAM 500 spectrometer (UNICAM Analytical Systems, UK) with coupled spectrophotometric assays using pyruvate kinase and lactate dehydrogenase as auxiliary enzymes in PEP synthesis reaction and malate dehydrogenase in the reverse reaction.\nVariable inhibitor concentrations of 0–200 μM were also used. Assays were initiated by PEPCK-C addition. Rates were calculated by measuring the decreasing slope of absorbance at 340 nm after subtracting the rate of spontaneous NADH oxidation.\n3-MP inhibition assays were fitted in double reciprocal plots. To describe the mixed non-competitive inhibition, the double reciprocal equation can be written as: 1/v = Km/Vmax (1+[I]/Ki) 1/[S]+1/Vmax (1+[I]/αKi) (2)"}, "PEPCK-C 139Leu": {"target": "T2, PEPCK-C 139Leu (Sus scrofa, UniProt A0A4X1UM84, M139L)", "T2 construct": "made in house; host or cells: Escherichia coli BL21 (DE3)", "T2 sequence (A0A4X1UM84 1-622 M139L)": "T1 sequence (A0A4X1UM84 1-622) with M139L", "assay": "Near-UV circular dichroism spectra", "format": "binding, pig", "conditions": "50 μM compound, 20 μM PEPCK-C (compound 1 also 150 μM, data not shown)", "experimental": "(§1) PEPCK-C was diluted to 20 μM in a 20 mM HEPES pH 7.4 buffer, containing 1 mM TCEP. 50 μM 3-MP, compound 1 or compound 2 were added to the PEPCK-C solution. Readings were performed at 25°C in a 0.1 cm cuvette from 320 to 250 nm in a Chirascan CD-spectrophotometer (Applied Photophysics, UK). CD spectra were calculated after subtracting the blank which contained all the components except PEPCK-C."}, "PEPCK-C 139Met [1]": {"target": "T3, PEPCK-C 139Met (Sus scrofa, UniProt A0A4X1UM84)", "T3 sequence (A0A4X1UM84 1-622)": "T1 sequence (A0A4X1UM84 1-622)", "assay": "Near-UV circular dichroism spectra", "format": "binding, pig", "parameters": "His-tag (cleaved yes); made in house; host or cells: Escherichia coli BL21 (DE3)", "conditions": "50 μM compound, 20 μM PEPCK-C (compound 1 also 150 μM, data not shown)", "experimental": "as §1"}, "PEPCK-C 139Met [2]": {"test_system": "PEPCK-C 139Met", "assay": "Thermal-shift screening of chemical library (ANS fluorescence)", "format": "binding, pig", "conditions": "25 μM compound, 4 μM PEPCK-C", "experimental": "PEPCK-C effectors were identified from a chemical library using a screening procedure based on a thermal-shift assay. Potential protein effector compounds were dispensed into 96-well microplates. Each well contained 4 μM PEPCK-C in a 20 mM HEPES buffer pH 7.4, plus 1 mM TCEP, 100 μM ANS, 10% DMSO and either 1 or 5 chemical library compounds, each at a 25 μM concentration. […] 50 μL of mineral oil were added to each well to prevent evaporation. In a first screening round, 5 different compounds were present in each well. The binding of effectors to PEPCK-C was assessed by monitoring the thermal denaturation of the enzyme and identifying compounds inducing a stabilizing effect (increase in the unfolding temperature, Tm, compared to the free enzyme) in a FluoDia T70 High Temperature Fluorescence Microplate Reader (Photon Technology International, UK). To obtain Tm values, unfolding curves were fitted to Boltzmann function (Eq 1) using OriginPro 9.1 software. y(T) = A1−A2/1+exp(T−Tm/S)+A2 (1) where A1 and A2 are the asymptotic values of the signal in the pre- and post-transition region of the unfolding curve, respectively, and S is a parameter associated with the slope of the unfolding curve at the Tm and related to the unfolding enthalpy of the enzyme. […] In a second round, the compounds present in the positive wells were individually analyzed to identify the binders."}, "[3]": {"assay": "Solubility / precipitation in the enzymatic assay", "format": "physicochemical", "experimental": "Assays to calculate IC50 values were performed in the direction of OAA synthesis in 1 mL of a 100 mM HEPES buffer pH 7.4, containing 10 mM DTT, 0.2 mM MnCl2, 2 mM MgCl2, 2 mM GDP, 0.2 mM NADH, 2 mM PEP, 100 mM KHCO3 and 4 units of malate dehydrogenase. Variable inhibitor concentrations of 0–200 μM were also used. Assays were initiated by PEPCK-C addition. Rates were calculated by measuring the decreasing slope of absorbance at 340 nm after subtracting the rate of spontaneous NADH oxidation."}},
  "note": "Changes are numbered by the printed parent chain.",
  "data": [
    {"smiles": "O=C(O)c1ncccc1S", "note": "[3-MP, 3-mercaptopicolinic acid]", "values": [
      {"measurement": "IC50", "setting": "wild type PEPCK-C", "result": "65 ± 6", "unit": "µM"},
      {"measurement": "Change of near-UV CD spectrum of the enzyme", "setting": "PEPCK-C 139Leu", "result": "modify the CD spectra of both isoenzymes"},
      {"measurement": "Change of near-UV CD spectrum of the enzyme", "setting": "PEPCK-C 139Met [1]", "result": "modify the CD spectra of both isoenzymes"}
    ]},
    {"smiles": "CC(=NNC(=S)NC1CCCCC1)c1sc(-c2cccs2)nc1C", "note": "[compound 1, N1-cyclohexyl-2-{1-[4-methyl-2-(2-thienyl)-1,3-thiazol-5-yl]ethylidene}hydrazine-1-carbothiamide]", "values": [
      {"measurement": "IC50", "setting": "wild type PEPCK-C", "result": "134 ± 4", "unit": "µM"},
      {"measurement": "Increase in Tm compared with controls", "setting": "PEPCK-C 139Met [2]", "result": "around 8 °C"},
      {"measurement": "Change of near-UV CD spectrum of the enzyme", "setting": "PEPCK-C 139Leu", "result": "no clear differences in the enzyme CD spectra"},
      {"measurement": "Solubility (in words)", "setting": "[3]", "result": "poor solubility"},
      {"measurement": "Change of near-UV CD spectrum of the enzyme", "setting": "PEPCK-C 139Met [1]", "result": "no clear differences in the enzyme CD spectra"}
    ]},
    {"smiles": "Cn1nc(-c2ccc(C=NNC(=O)c3ccc(Cl)cc3Cl)s2)cc1C(F)(F)F", "note": "[compound 2, N'1-({5-[1-methyl-5-(trifluoromethyl)-1H-pyrazol-3-yl]-2-thienyl}methylidene)-2,4-dichlorobenzene-1-carbohydrazide]", "values": [
      {"measurement": "IC50", "setting": "wild type PEPCK-C", "result": "30 ± 2", "unit": "µM"},
      {"measurement": "Increase in Tm compared with controls", "setting": "PEPCK-C 139Met [2]", "result": "around 8 °C"},
      {"measurement": "Change of near-UV CD spectrum of the enzyme", "setting": "PEPCK-C 139Leu", "result": "more markedly compound 2 modify the CD spectra of both isoenzymes"},
      {"measurement": "Solubility (in words)", "setting": "[3]", "result": "poor solubility"},
      {"measurement": "Change of near-UV CD spectrum of the enzyme", "setting": "PEPCK-C 139Met [1]", "result": "more markedly compound 2 modify the CD spectra of both isoenzymes"}
    ]}
  ]
}
